Test results from US9782399B2, “Pharmaceutical compositions which inhibit FKBP52-mediated regulation of androgen receptor function and methods of using same” (The United States of America, as represented by the …, priority 2009, dated 2017).

What was measured:
wild type human AR = target: T1, wild type human AR (Homo sapiens, UniProt P10275); assay: Yeast AR-mediated β-galactosidase reporter assay, control strain (wild type AR alone); type: cell-based; conditions: without FKBP52
T1 construct: expressed in transfected cells; host or cells: Saccharomyces cerevisiae W303 (PDR5 deleted)
T1 sequence (P10275 1-920): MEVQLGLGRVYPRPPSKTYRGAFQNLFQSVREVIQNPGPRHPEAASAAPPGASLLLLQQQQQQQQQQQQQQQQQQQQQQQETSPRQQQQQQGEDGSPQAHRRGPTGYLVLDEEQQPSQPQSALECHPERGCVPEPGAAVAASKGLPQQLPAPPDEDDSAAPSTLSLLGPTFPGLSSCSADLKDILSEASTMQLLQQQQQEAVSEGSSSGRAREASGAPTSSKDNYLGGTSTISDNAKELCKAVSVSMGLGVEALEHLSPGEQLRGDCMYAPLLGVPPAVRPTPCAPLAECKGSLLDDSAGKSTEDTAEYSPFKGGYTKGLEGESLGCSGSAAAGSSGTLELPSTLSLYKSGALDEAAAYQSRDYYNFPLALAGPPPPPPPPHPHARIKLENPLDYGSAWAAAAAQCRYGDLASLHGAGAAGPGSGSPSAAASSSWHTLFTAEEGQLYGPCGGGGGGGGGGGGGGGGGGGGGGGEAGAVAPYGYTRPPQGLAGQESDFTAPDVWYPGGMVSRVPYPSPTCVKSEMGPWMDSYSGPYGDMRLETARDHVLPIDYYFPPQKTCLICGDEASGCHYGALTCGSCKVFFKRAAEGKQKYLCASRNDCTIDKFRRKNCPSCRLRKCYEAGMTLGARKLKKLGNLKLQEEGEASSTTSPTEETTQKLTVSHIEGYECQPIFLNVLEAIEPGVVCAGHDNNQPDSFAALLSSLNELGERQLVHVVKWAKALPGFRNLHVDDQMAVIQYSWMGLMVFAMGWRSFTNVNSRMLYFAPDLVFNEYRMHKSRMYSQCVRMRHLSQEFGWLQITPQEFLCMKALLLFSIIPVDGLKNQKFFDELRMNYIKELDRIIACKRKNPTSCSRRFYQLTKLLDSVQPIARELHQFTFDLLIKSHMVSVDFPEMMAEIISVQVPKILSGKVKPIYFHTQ
Text: The yeast host strain used to make these four strains, W303, has his3, trp1 and ura3 mutations, so that growth on media lacking tryptophan, histidine and uracil requires the presence of all three plasmids. The URA3-marked steroid receptor-mediated β-galactosidase reporter plasmid (pUCΔss-26X) was the gift of Dr. Brian Freeman, University of Illinois. The pleiotropic drug resistance 5 (PDR5) gene was deleted in this strain, because PDR5 is an ATP-binding cassette transporter that could potentially transport the test compounds out of the cells, thereby hindering their identification. By deleting PDR5, this potential problem is avoided. […]
(§1) The strains were cultivated overnight using a shaking incubator in SC-HUW medium (synthetic complete medium lacking histidine, uracil and tryptophan). […] About one hour later, the plate was read in a luminometer. The measured RLU (relative light units) was normalized to the cell density of the cultures, at the time they were added to the plates, to give a measure of RLU/OD unit. […]
The inventors began testing compounds in the assay by starting with a standard concentration of about 50 μM for all compounds tested. […] The plates are incubated for approximately another 1-3 hours, preferable about 1 hour and 30 minutes, and the light emission is measured on a microplate luminometer (Luminoskan Ascent, Thermo Labsystems). […]

[1] = system: FKBP52-enhanced AR function; assay: Yeast AR-mediated β-galactosidase reporter assay, tester strain (AR-P723S + FKBP52); type: cell-based; conditions: DHT-induced β-galactosidase reporter
Text: To investigate FTA inhibitory activity, a modified yeast-based assay was created to screen an in-house compound library. The receptor-mediated β-galactosidase assays were initially based on published methods ((Riggs D L, et al., EMBO J., 22:1158-67 (2003); Cox M B, et al., Toxicol. Lett. 129:13-21 (2002) and Balsiger, H. A., and Cox, M. B., in Methods in Molecular Biology: The Nuclear Receptor Superfamily, vol. 505. Edited by I. J. McEwan. The Humana Press, Totowa, N.J. (2008)), however, the assay methods were modified substantially to allow use of a 96-well plate format. All cDNAs for the FKBP proteins were obtained from the laboratory of David Smith at the Mayo Clinic, Arizona. The AR-P723S mutant was originally described previously (Cheung-Flynn, J. et al. (2005)).
All receptors and FKBP proteins were expressed from a set of yeast expression vectors that are commercially available (Mumberg, D., et al., Gene 156: 119-122 (1995)). […]
as §1

## Cc1ccc(NC(=O)c2ccccc2C(=O)O)cc1C [Compound 1]
Wild type human AR
  effect on AR function alone: does not affect AR function alone
[1]
  inhibition of FKBP52-enhanced AR function: inhibits FKBP52-enhanced AR function
